# ChEMBL document CHEMBL1157561, “Identification of potent pyrazolo[4,3-h]quinazoline-3-carboxamides as multi-cyclin-dependent kinase inhibitors” (J Med Chem, 2010)
# Columns and labels:
# Aurora kinase A = target: T1, Aurora kinase A (Homo sapiens, UniProt O14965); assay: Inhibition of Aurora A
# T1 sequence (O14965 whole entry): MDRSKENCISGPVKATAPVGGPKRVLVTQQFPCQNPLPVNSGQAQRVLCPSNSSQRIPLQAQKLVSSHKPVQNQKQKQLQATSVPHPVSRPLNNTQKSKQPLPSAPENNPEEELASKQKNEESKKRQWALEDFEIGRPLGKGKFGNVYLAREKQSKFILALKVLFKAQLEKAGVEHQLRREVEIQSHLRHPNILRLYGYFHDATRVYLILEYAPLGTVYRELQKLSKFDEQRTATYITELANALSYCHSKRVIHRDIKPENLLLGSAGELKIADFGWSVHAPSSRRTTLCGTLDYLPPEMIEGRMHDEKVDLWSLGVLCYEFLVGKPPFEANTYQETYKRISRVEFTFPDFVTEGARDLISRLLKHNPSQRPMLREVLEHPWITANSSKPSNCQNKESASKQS
# [1] = Solubility at pH 7.0; assay type: physicochemical; details: buffer
# [2] = target: Cyclin-dependent kinase 2/cyclin A (Homo sapiens, UniProt P24941); assay: Inhibition of CDK2/Cyclin A; assay type: protein-complex assay
# A2780 = assay: Antiproliferative activity against human A2780 cells after 72 hrs by cell-titer-glo assay; assay type: functional, cell-based; details: A2780, 72 h
Compound,IC50 (Aurora kinase A) [µM],solubility [1] [µM],IC50 [2] [µM],IC50 (A2780) [µM]
Cn1nc(C(N)=O)c2c1-c1nc(NCc3ccncc3)ncc1CC2,1.92,222,0.021,1.24
CNC(=O)c1nn(C)c2c1CCc1cnc(NC3CCCCC3)nc1-2,> 10,50,–,8.6
Cn1nc(C(N)=O)c2c1-c1nc(NC3CCCCC3)ncc1CC2,> 10,< 1,0.004,0.41
Cn1nc(C(N)=O)c2c1-c1nc(NCc3cccnc3)ncc1CC2,2.31,138,0.021,1.39
Cn1nc(C(N)=O)c2c1-c1nc(NCCO)ncc1CC2,4.6,> 225,0.019,2.55
CC(CN(C)C)NC(=O)c1nn(C)c2c1CCc1cnc(NC3CCCC3)nc1-2 (configuration not stated),> 10,171,1.76,> 10
CN(C)CCN(C)C(=O)c1nn(C)c2c1CCc1cnc(NC3CCCC3)nc1-2,> 10,189,> 10,5.17
NC(=O)c1nn(-c2ccccn2)c2c1CCc1cnc(NC3CCCC3)nc1-2,> 10,4.9,0.052,2.16
CN1CCN(C(=O)N2CCC(Nc3ncc4c(n3)-c3c(c(C(N)=O)nn3C)CC4)CC2)CC1,4.71,> 225,0.012,1.3
CNC(=O)c1nn(C)c2c1CCc1cnc(NC3CCN(C(=O)N4CCN(C)CC4)CC3)nc1-2,> 10,> 10,1.12,> 10
CNC(=O)c1nn(C)c2c1CCc1cnc(NC3CCCC3)nc1-2,> 10,36,0.097,> 10
CC(=O)Nc1ccc(CNc2ncc3c(n2)-c2c(c(C(N)=O)nn2C)CC3)cc1,0.672,> 10,0.013,0.903
Cn1nc(C(N)=O)c2c1-c1nc(NCc3ccc(S(C)(=O)=O)cc3)ncc1CC2,0.89,138,0.038,2.36
CN1CCN(c2ccc(CNc3ncc4c(n3)-c3c(c(C(N)=O)nn3C)CC4)cc2)CC1,1.29,28,0.017,1.58
NC(=O)c1nn(-c2ccccc2)c2c1CCc1cnc(NC3CCCC3)nc1-2,4.05,< 1,0.02,0.48
CCN1CCC(Nc2ncc3c(n2)-c2c(c(C(N)=O)nn2C)CC3)CC1,> 10,221,0.149,2.46
CNC(=O)c1nn(C)c2c1CCc1cnc(NC3CCN(C(C)=O)CC3)nc1-2,> 10,> 225,0.032,> 10
Cn1nc(C(N)=O)c2c1-c1nc(NC3CCCC3)ncc1CC2,> 10,13,0.002,0.245
Cn1nc(C(N)=O)c2c1-c1nc(NCc3ccccc3)ncc1CC2,1,> 10,0.051,0.933
COc1cccc(CNc2ncc3c(n2)-c2c(c(C(N)=O)nn2C)CC3)c1,1.14,4.4,0.066,1.98
COc1ccc(CNc2ncc3c(n2)-c2c(c(C(N)=O)nn2C)CC3)cc1,1.45,< 1,0.058,4.14

Compound,IC50 (Aurora kinase A) [µM],solubility [1] [µM],IC50 [2] [µM],IC50 (A2780) [µM]
CN(O)C(=O)c1nn(C)c2c1CCc1cnc(NC3CCCC3)nc1-2,3.06,29,0.175,5.53
CNC(=O)c1nn(C2CCN(C)CC2)c2c1CCc1cnc(NC3CCCC3)nc1-2,> 10,182,0.059,1.59
NC(=O)c1nn(CCO)c2c1CCc1cnc(NC3CCCC3)nc1-2,6.04,27,0.008,0.33
NC(=O)c1nn(CC(F)(F)F)c2c1CCc1cnc(NC3CCCC3)nc1-2,> 10,< 1,0.005,0.37
CC(=O)N1CCC(n2nc(C(N)=O)c3c2-c2nc(NC4CCCC4)ncc2CC3)CC1,1.97,179,0.007,0.07
CN1CCC(Nc2ncc3c(n2)-c2c(c(C(N)=O)nn2C)CC3)CC1,> 10,> 225,0.351,2
CN1CCC(n2nc(C(N)=O)c3c2-c2nc(NC4CCCC4)ncc2CC3)CC1,> 10,181,0.006,0.046
Cn1nc(C(N)=O)c2c1-c1nc(N)ncc1CC2,> 10,> 225,> 10,2.2
CN1CCN(C(=O)c2nn(C)c3c2CCc2cnc(NC4CCCC4)nc2-3)CC1,> 10,83,> 10,0.506
COc1ccc(-n2nc(C(N)=O)c3c2-c2nc(NC4CCCC4)ncc2CC3)cc1,2.31,< 1,0.006,0.557
Cn1nc(C(N)=O)c2c1-c1nc(NCCN3CCOCC3)ncc1CC2,> 10,214,0.209,8.67
CN1CCN(c2cccc(CNc3ncc4c(n3)-c3c(c(C(N)=O)nn3C)CC4)c2)CC1,2.14,210,0.104,0.92
Cn1nc(C(=O)N(O)Cc2ccccc2)c2c1-c1nc(NC3CCCC3)ncc1CC2,4.56,< 1,1.37,6.14
Cn1nc(C(=O)N(O)C2CCCCC2)c2c1-c1nc(NC3CCCC3)ncc1CC2,3.84,< 1,0.296,3.97
NC(=O)c1nn(-c2ccc(S(N)(=O)=O)cc2)c2c1CCc1cnc(NC3CCCC3)nc1-2,0.442,108,0.005,1
CNC(=O)c1nn(C)c2c1CCc1cnc(NC3CCN(C(=O)c4ccccc4)CC3)nc1-2,> 10,168,0.025,0.822
CNC(=O)c1nn(C)c2c1CCc1cnc(NC3CCN(C)CC3)nc1-2,> 10,220,4.59,> 10
NC(=O)c1nn(Cc2ccccc2)c2c1CCc1cnc(NC3CCCC3)nc1-2,> 10,< 1,0.023,0.84
Cn1nc(C(N)=O)c2c1-c1nc(NCc3ccccn3)ncc1CC2,4.64,123,0.087,5.12
Cn1nc(C(N)=O)c2c1-c1nc(NCCN3CCCCC3)ncc1CC2,> 10,182,2.49,7.6
Cn1nc(C(N)=O)c2c1-c1nc(NCc3ccc(Br)cc3)ncc1CC2,1.69,< 1,0.081,0.567
